Experimental data: patent US9163003B2, “4-piperidinyl compounds for use as tankyrase inhibitors” (NOVARTIS AG, priority 2011, dated 2015)
Like-named read-outs stand apart in the source and are kept apart here.

Assays:
[1] = system: Non-small lung cancer ABC-1 cells; assay: Cellular proliferation assay, ABC-1 cells (CellTiter-Glo); assay type: cell-based; details: 3 days of compound treatment
Method: Non-small lung cancer ABC-1 cells were plated at 5000 cells per well in 96-well plates and treated with 8 serial compound dilutions starting from 10 μM as the highest concentration. Viable cells were measured after 3 days of compound treatment using the CellTiter-Glo assay (Promega, G7570). Assay was performed following the manufacture protocol.

[2] = system: Axin2 protein; assay: Cellular ELISA assay for stabilizing the Axin2 protein in SW480 cells; assay type: cell-based; details: 24 hrs treatment, read-out: Axin AC50
Method: Compound activity in stabilizing the Axin2 protein was measured by Sandwich Enzyme-Linked Immuosorbent (ELISA) assay in the colorectal cell line SW480. 30,000 SW480 cells were seeded per well in 96-well plate and incubated overnight prior to compound treatment. Cells were then treated with compounds in 6-point dilution starting at 10 μM for 24 hrs. Cells were then washed with 100 μL of cold Phosphate Buffer Saline (PBS), and lysed in 125 μl of cold 1× lysis buffer (Cell Signaling Technology, 9803) supplemented with Protease inhibitor (Roche, 11836170) and Phosphatase inhibitors (Sigma, P2850, P5726). For the ELISA assay, anti Axin-2 capture antibody (Strategic Diagnostics) antibody was diluted to a concentration of 1 μg/ml (1:1000) in Carbonate Coating buffer, pH 9.2 (Sigma, C3041-50CAP). 100μ of the diluted anti Axin-2 capture antibody per well was then used to coat the 96-well ELISA plate (Thermo Electron Corp., MicroLite 1 flat bottom plate #7571) overnight at 4° C. Plates were then washed three times with 300 μl/well of wash solution, PBST20 (PBS+0.05% Tween), and blocked with 300 μl/well 1% BSA/PBS (BSA, Millipore Probumin #82-045-1) for 1.5 hours at room temperature while shaking gently. After blocking, plates were then washed three times with 300 μl/well of wash solution. 100 μL of prepared SW480 cell lysate was then added to each well and incubated at room temperature for 2 hours while shaking gently. After washing, 100 μL of Biotinylated anti-Axin2 antibody (CST, 2151) was added to each well and incubated room temperature for 2 hours. 100 μL of Streptavidin-HRP (R&D systems, DY998) diluted 1:200 in 1% BSA/PBS was then added in each well and incubate for 30 mins at R/T in the dark. Signal was detected by Chemiluminescence (Pierce SuperSignal ELISA Femto #3704), and measured on PerkinElmer Wallac 1420 plate reader.

[3] = molecular target: Human PARP1 (Homo sapiens (Human), UniProt P09874); assay: PARP1 autoparsylation biochemical assay, LC/MS detection of nicotinamide; details: read-out: PARP1 IC50, 20 nM enzyme, 250 μM NAD+, 60 min room temperature
Chain of Human PARP1 (P09874 whole entry): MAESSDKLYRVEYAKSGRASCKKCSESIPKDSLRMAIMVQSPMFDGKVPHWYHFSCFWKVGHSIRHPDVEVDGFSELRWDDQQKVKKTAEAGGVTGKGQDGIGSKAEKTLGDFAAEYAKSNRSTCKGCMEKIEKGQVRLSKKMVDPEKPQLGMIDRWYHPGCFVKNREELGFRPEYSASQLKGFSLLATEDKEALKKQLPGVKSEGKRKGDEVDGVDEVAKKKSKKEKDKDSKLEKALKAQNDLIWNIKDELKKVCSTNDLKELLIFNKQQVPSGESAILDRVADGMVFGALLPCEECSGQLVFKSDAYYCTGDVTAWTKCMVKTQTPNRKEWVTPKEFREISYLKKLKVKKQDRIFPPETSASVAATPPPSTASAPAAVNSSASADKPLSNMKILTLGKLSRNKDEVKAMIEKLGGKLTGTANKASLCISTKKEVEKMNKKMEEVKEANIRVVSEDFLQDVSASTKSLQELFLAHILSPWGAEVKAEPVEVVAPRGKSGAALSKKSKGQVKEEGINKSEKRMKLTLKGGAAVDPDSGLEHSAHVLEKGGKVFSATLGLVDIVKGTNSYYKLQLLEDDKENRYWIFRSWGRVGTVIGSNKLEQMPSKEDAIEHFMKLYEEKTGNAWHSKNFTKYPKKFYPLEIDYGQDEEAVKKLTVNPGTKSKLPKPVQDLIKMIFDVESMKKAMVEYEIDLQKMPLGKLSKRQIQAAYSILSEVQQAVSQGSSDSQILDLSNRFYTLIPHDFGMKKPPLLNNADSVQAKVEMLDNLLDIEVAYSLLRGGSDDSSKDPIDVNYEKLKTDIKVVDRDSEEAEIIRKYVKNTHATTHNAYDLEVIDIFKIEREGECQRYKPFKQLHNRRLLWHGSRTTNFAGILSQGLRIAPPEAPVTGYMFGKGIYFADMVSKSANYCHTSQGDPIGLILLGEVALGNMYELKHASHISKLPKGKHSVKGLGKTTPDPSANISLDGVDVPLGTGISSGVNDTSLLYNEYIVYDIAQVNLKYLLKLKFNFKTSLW

[4] = molecular target: PARP2 (Mus musculus (Mouse), UniProt O88554); assay: PARP2 autoparsylation biochemical assay, LC/MS detection of nicotinamide; details: read-out: PARP2 Ic50, 20 nM enzyme, 250 μM NAD+, 60 min room temperature
Chain of PARP2 (O88554 whole entry, the tested form may be a part): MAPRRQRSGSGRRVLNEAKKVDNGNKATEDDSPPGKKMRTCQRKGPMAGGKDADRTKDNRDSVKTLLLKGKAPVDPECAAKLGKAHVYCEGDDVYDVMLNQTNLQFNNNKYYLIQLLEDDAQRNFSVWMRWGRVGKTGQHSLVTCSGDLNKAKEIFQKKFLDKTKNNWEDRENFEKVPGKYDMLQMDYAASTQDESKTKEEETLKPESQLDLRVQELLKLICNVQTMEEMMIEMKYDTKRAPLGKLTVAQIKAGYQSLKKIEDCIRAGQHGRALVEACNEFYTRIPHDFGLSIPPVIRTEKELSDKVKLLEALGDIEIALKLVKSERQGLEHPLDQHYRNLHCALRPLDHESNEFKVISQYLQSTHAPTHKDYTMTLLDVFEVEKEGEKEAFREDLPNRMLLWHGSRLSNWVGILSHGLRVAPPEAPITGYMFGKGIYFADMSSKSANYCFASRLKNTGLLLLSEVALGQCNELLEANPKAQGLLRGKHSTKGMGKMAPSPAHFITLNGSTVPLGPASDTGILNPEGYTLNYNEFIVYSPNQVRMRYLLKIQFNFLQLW

[5] = molecular target: human tankyrase 1 PARP catalytic domain, TNKS1P (GST-tagged) (Homo sapiens (Human), UniProt O95271); assay: TNKS1 autoparsylation (AP) biochemical assay, LC/MS detection of nicotinamide; details: 20 nM enzyme, 250 μM NAD+, 60 min room temperature
Chain of human tankyrase 1 PARP catalytic domain, TNKS1P (GST-tagged) (O95271 1112-1317): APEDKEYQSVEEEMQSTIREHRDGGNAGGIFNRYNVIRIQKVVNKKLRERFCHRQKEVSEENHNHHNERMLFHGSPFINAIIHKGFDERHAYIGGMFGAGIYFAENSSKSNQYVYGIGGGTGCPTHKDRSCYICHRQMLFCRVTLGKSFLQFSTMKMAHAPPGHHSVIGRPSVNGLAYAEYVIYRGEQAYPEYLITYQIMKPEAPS
Method: The human tankyrase 1 PARP catalytic domain, TNKS1P, was cloned into a pDONR221 vector using the Invitrogen Gateway Technology. This entry clone was then subcloned into the destination vector pDEST20 to obtain the N-terminal Glutathione S-transferase (GST)-tagged fusion protein.
The autoparsylation activity of the TNKS 1/2 or PARP1/2 enzymes was measured by the liquid chromatography-mass spectrometry (LC/MS) detection of nicotinamide as readout. Compound activity in inhibiting the TNKS and PARP autoparsylation was evaluated by IC50 measurements.

[6] = system: Wnt ligand-induced signaling; assay: Wnt-responsive Super-TOpFlash (STF) luciferase reporter gene assay in HEK293 cells; assay type: cell-based; details: Homo sapiens, Wnt3A condition medium induced
Method: Compound activity in inhibiting Wnt ligand-induced signaling was measured using a Wnt-responsive Super-TOpFlash (STF) luciferase reporter gene assay in HEK293 cells. On day 1 of the assay, cells were plated at a density of 8000 cells per well of 384-well plate in 25 μl medium containing 5% fetal bovine serum (FBS). On the second day, […] condition medium (CM) produced from mouse L cells was added to the cells to induce Wnt signaling, followed by addition of 5 μL of compounds each well in 10-point serial dilution. On the third day, the luciferase activity was measured by the Bright-Glo™ Luciferase Assay System following manufacture's protocol (Promega, E2620). The Inhibition was calculated as: (Maximum Wnt-induced signaling−Sample)/(Maximum Wnt-induced signaling−Background)*100. “Maximum Wnt-induced signaling” is the STF signal level induced by 20% Wnt3A CM without compound; and “Background” is the STF signal level without the addition of Wnt3A CM or compound.

[7] = molecular target: tankyrase 2 protein PARP domain, TNKS2P (GST-tagged) (Homo sapiens (Human), UniProt Q9H2K2); assay: TNKS2 autoparsylation (AP) biochemical assay, LC/MS detection of nicotinamide; details: 20 nM enzyme, 250 μM NAD+, 60 min room temperature
Chain of tankyrase 2 protein PARP domain, TNKS2P (GST-tagged) (Q9H2K2 959-1164): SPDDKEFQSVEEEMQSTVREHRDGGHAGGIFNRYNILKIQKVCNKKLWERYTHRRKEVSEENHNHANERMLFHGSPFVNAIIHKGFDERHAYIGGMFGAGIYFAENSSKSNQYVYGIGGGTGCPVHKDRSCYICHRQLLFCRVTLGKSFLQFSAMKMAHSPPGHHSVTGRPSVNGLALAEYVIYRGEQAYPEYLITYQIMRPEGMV

Row | Structure (SMILES) | IC50 [1] [nM] | AC50 [2] [nM] | IC50 [3] [µM] | IC50 [4] [µM] | IC50 [5] [nM] | IC50 ([1]; Homo sapiens, 72 h) [nM] | AC50 ([2]; Homo sapiens) [nM] | IC50 [6] [nM] | IC50 [7] [nM]
1 | COc1ccc(C(=O)C2CCN([C@@H]3CCN(CC(=O)Nc4nnc5n4CCS5)C3=O)CC2)cc1 (single isomer, unassigned) [Example 34] | 49 | 78 ± 6 | > 19 | 6.3 ± 0.7 | 38 ± 1 |  |  |  | 
2 | COc1ccc(C(=O)C2CCN(C3CCN(Cc4nc5c(c(=O)[nH]4)COCC5)C3=O)CC2)cc1 (stereo not shown) [Example 2, 2-{3-[4-(4-Methoxy-benzoyl)-piperidin-1-yl]-2-oxo-pyrrolidin-1-ylmethyl}-3,5,7,8-tetrahydro-pyrano[4,3-d]pyrimidin-4-one] |  |  | 9.3 ± 1.8 | 5.4 ± 0.4 | 33 ± 7 | 30 ± 5 | 31.3 ± 3.6 | 1.3 ± 0.8 | 15 ± 4
3 | COc1ccc(C(=O)C2CCN([C@H]3CCN(Cc4nc5c(c(=O)[nH]4)COCC5)C3=O)CC2)cc1 [Example 3, 2-{(S)-3-[4-(4-Methoxy-benzoyl)-piperidin-1-yl]-2-oxo-pyrrolidin-1-ylmethyl}-3,5,7,8-tetrahydro-pyrano[4,3-d]pyrimidin-4-one] |  |  | 21 ± 8.7 | 4.8 ± 0.6 | 12.8 ± 2.6 | 12 ± 3 | 6.3 ± 1.3 | 1.1 ± 0.4 | 9.5 ± 0.7
4 | COc1ccc(C(=O)C2CCN(C3CCN(Cc4nc5c(cnn5C)c(=O)[nH]4)C3=O)CC2)cc1 (stereo not shown) [Example 6, 6-{3-[4-(4-Methoxy-benzoyl)-piperidin-1-yl]-2-oxo-pyrrolidin-1-ylmethyl}-1-methyl-1,3a,5,7a-tetrahydro-pyrazolo[3,4-d]pyrimidin-4-one] |  |  | > 19 | > 19 | 22 ± 4 | 43 | 23 ± 3 | 5.9 ± 1.5 | 25 ± 4
5 | O=C(c1ccc(Cl)cc1)C1CCN(C2CCN(Cc3nc4c(c(=O)[nH]3)COCC4)C2=O)CC1 (stereo not shown) [Example 9, 2-{3-[4-(4-Chloro-benzoyl)-piperidin-1-yl]-2-oxo-pyrrolidin-1-ylmethyl}-3,5,7,8-tetrahydro-pyrano[4,3-d]pyrimidin-4-one] |  |  | 16.6 ± 4.2 | 4.62 ± 0.95 | 30 ± 2 | 60 | 52 ± 4 | 3 ± 3 | 23 ± 1
6 | O=C(c1ccc(F)cc1)C1CCN(C2CCN(Cc3nc4c(c(=O)[nH]3)COCC4)C2=O)CC1 (stereo not shown) [Example 10, 2-{3-[4-(4-Fluoro-benzoyl)-piperidin-1-yl]-2-oxo-pyrrolidin-1-ylmethyl}-3,5,7,8-tetrahydro-pyrano[4,3-d]pyrimidin-4-one] |  |  | 23.6 ± 2.7 | 9.2 ± 2.2 | 27 ± 1 | 291 | 257 ± 67 | 10 ± 1 | 6 ± 1
7 | O=C(c1ccc(F)cc1)C1CCN([C@H]2CCN(Cc3nc4c(c(=O)[nH]3)COCC4)C2=O)CC1 [Example 11, 2-{(S)-3-[4-(4-Fluoro-benzoyl)-piperidin-1-yl]-2-oxo-pyrrolidin-1-ylmethyl}-3,5,7,8-tetrahydro-pyrano[4,3-d]pyrimidin-4-one] |  |  | 37.4 ± 0.3 | 10.2 ± 4.2 | 37 ± 5 | 301 | 132 ± 22 | 5 ± 5 | 17 ± 2
8 | COc1ccc(C(=O)C2CCN([C@H]3CCN(Cc4nc5c(c(=O)[nH]4)COCC5)C3=O)CC2)cc1C [Example 13, 2-{(S)-3-[4-(4-Methoxy-3-methyl-benzoyl)-piperidin-1-yl]-2-oxo-pyrrolidin-1-ylmethyl}-3,5,7,8-tetrahydro-pyrano[4,3-d]pyrimidin-4-one] |  |  | 24 ± 3 | 4 ± 1.1 | 6 ± 1 | 3 | 2.1 ± 0.1 | 1.2 ± 1 | 3 ± 1
9 | COc1ccc(C(=O)C2CCN(C3CCN(Cc4nc5c(c(=O)[nH]4)CCC5)C3=O)CC2)cc1 (stereo not shown) [Example 21, 2-((3-(4-(4-methoxybenzoyl)piperidin-1-yl)-2-oxopyrrolidin-1-yl)methyl)-6,7-dihydro-3H-cyclopenta[d]pyrimidin-4(5H)-one] |  |  | 29.6 ± 2.8 | 10.7 ± 0.2 | 34 ± 1 | 18 | 7 ± 2 | 1.1 ± 0.17 | 17 ± 2
10 | CCc1cc(=O)[nH]c(CN2CCC(N3CCC(C(=O)c4ccc(OC)cc4)CC3)C2=O)n1 (stereo not shown) [Example 24, 6-Ethyl-2-{3-[4-(4-methoxy-benzoyl)-piperidin-1-yl]-2-oxo-pyrrolidin-1-ylmethyl}-3H-pyrimidin-4-one] |  |  | > 19 | > 19 | 115 ± 4 | 183 | 104 ± 15 | 10.4 ± 2.3 | 53 ± 5
11 | COc1ccc(C(=O)C2CCN(C3CCN(Cc4ncc(C)c(=O)[nH]4)C3=O)CC2)cc1 (stereo not shown) [Example 25, 2-{3-[4-(4-Methoxy-benzoyl)-piperidin-1-yl]-2-oxo-pyrrolidin-1-ylmethyl}-5-methyl-3H-pyrimidin-4-one] |  |  | > 19 | > 19 | 72 ± 2 | 117 | 46 ± 3 | 3.4 ± 1.5 | 36 ± 6
12 | COc1ccc(C(=O)C2CCN(C3CCN(Cc4nc(C)c(C)c(=O)[nH]4)C3=O)CC2)cc1 (stereo not shown) [Example 26, 2-{3-[4-(4-Methoxy-benzoyl)-piperidin-1-yl]-2-oxo-pyrrolidin-1-ylmethyl}-5,6-dimethyl-3H-pyrimidin-4-one] |  |  | > 19 | > 19 | 47 ± 2 | 43 | 21 ± 3 | 4.1 ± 2.1 | 26 ± 1
13 | COc1ccc(C(=O)C2CCN([C@@H]3CCN(Cc4nc5ccccc(=O)c5[nH]4)C3=O)CC2)cc1 [Example 31, 2-{(R)-3-[4-(4-Methoxy-benzoyl)-piperidin-1-yl]-2-oxo-pyrrolidin-1-ylmethyl}-3H-cycloheptaimidazol-4-one] |  |  |  | 10.1 ± 2.6 | 1080 ± 10 | 85 | 89 ± 2 | 65 ± 14 | 
14 | COc1ccc(C(=O)C2CCN(C3CCN(CC(=O)Nc4nnc5n4CCS5)C3=O)CC2)cc1 (stereo not shown) [Example 32, N-(5,6-dihydrothiazolo[2,3-c][1,2,4]triazol-3-yl)-2-(3-(4-(4-methoxybenzoyl)piperidin-1-yl)-2-oxopyrrolidin-1-yl)acetamide] |  |  | > 19 | 5.09 ± 0.12 | 43 ± 1 | 76 | 131 ± 8 |  | 
15 | COc1ccc(C(=O)C2CCN(C3CCN(CC(=O)Nc4nnc5ccccn45)C3=O)CC2)cc1 (stereo not shown) [Example 35, N-([1,2,4]triazolo[4,3-a]pyridin-3-yl)-2-(3-(4-(4-methoxybenzoyl)piperidin-1-yl)-2-oxopyrrolidin-1-yl)acetamide] |  |  |  |  | 2470 ± 30 | 2630 | 1890 ± 160 | 940 ± 70 | 636 ± 36
